Data as given in patent publication US20030237104A1 (priority 2002, published 2003).
Like-named read-outs stand apart in the source and are kept apart here.

Columns and labels:
[1] = tested on: CB6F1-HRAS2 mice; settings: in vivo
[2] = tested on: Salmonella; settings: cited from earlier work
[3] = tested on: non-Tg mice (CB6F1); settings: mouse, in vivo
[4] = tested on: rasH2 mice; settings: mouse, in vivo, ip; cited from earlier work
[5] = tested on: CB6F1-Tg-rasH2 mice; settings: mouse, in vivo, ip, 75 mg/kg
[6] = CB6F1-HRAS2 and non-Tg CB6F1, mouse
[7] = CB6F1-HRAS2, mouse, sc, 15 mg/kg
[8] = CB6F1-HRAS2, mouse, ip, 60 mg/kg

## [O-][n+]1ccc(NO)c2ccccc21 [4HAQO, 4-Hydroxyaminoquinoline-1-oxide]
[1]; [6]
  tumors in the exocrine portion of the pancreas: Neither the 4HAQO-treated Tg nor the non-Tg mice developed tumors
[1]; mouse
  Malignant Tumors Tg: ++
  Rapid tumor response in Tg mice: +
  Tumor incidence and/or multiplicity: Tg > non-Tg
  forestomach and skin papillomas: induced
  other tumors (e.g., leukemias and thymomas): observed only in the Tg mice
[2]
  Genotoxicity (Salmonella): +
[3]
  Malignant Tumors Non-Tg: +
  forestomach and skin papillomas: hardly observed

## O=[N+]([O-])c1cc[n+]([O-])c2ccccc12 [4NQO, 4-Nitroquinoline-1-oxide]
[1]; [7]
  lung adenocarcinomas: observed only in 4NQO-treated CB6F1-HRAS2 mice
  squamous cell carcinomas of skin: observed only in 4NQO-treated CB6F1-HRAS2 mice
[1]; both, CB6F1-HRAS2, mouse, sc, 15 mg/kg
  mice bearing skin papillomas: Approximately 90%
[1]; mouse
  Malignant Tumors Tg: +
  Rapid tumor response in Tg mice: +
  Tumor incidence and/or multiplicity: Tg > non-Tg
[1]; mouse, sc, 15 mg/kg
  incidence of lung adenoma: higher than that in corresponding non-Tg mice
[3]
  Malignant Tumors Non-Tg: −
[3]; sc, 15 mg/kg
  skin tumors: No skin tumors were observed

## O=P1(N(CCCl)CCCl)NCCCO1 (centres unmarked) [Cyclophosphamide]
[1]; CB6F1-HRAS2, mouse
  adenocarcinomas (lung): observed only in one cyclophosphamide-treated male CB6F1-HRAS2 mouse
[1]; mouse
  Malignant Tumors Tg: +
  Tumor incidence and/or multiplicity: Tg ÷ non-Tg
  incidence and multiplicity of lung adenoma: not significantly higher
  incidence of lung adenoma: not significantly different from that in corresponding non-Tg mice
  lung tumors: induced lung tumors
  tumors in other organs (bladder, mammary gland, lymphatic systems): No tumor was observed
[2]
  Genotoxicity (Salmonella): +
[3]
  Malignant Tumors Non-Tg: −

## S=C1NCCN1 [Ethylene thiourea]
[1]; female, CB6F1-HRAS2, mouse
  incidence of thyroid adenocarcinoma: 9%
  thyroid adenomas incidence: 26%
[1]; mouse
  Malignant Tumors Tg: +
  Tumor incidence and/or multiplicity: Tg ÷ non-Tg
  thyroid tumors: did not induce
[2]
  Genotoxicity (Salmonella): −
  Salmonella mutagenesis assay result: negative
[3]; female, CB6F1 (non-Tg)
  incidence of thyroid adenocarcinoma: 4%
  thyroid adenomas incidence: 20%
[3]
  Malignant Tumors Non-Tg: +

## C[N+]([O-])=NCO [MAM, Methylazoxymethanol]
[1]; mouse
  Malignant Tumors Tg: +
  Tumor incidence and/or multiplicity: Tg > non-Tg^c
  incidence and multiplicity of lung adenoma: not significantly higher
[1]; mouse, sc, 20 mg/kg
  lung adenoma incidence: similar
[2]
  Genotoxicity (Salmonella): +
[3]
  Malignant Tumors Non-Tg: −

## CN(N=O)C(N)=O [MNU, N-Methyl-N-nitrosourea]
[1]; CB6F1-HRAS2, mouse
  forestomach squamous cell carcinoma: seen only in MNU-treated CB6F1-HRAS2 mice
[1]; mouse
  Malignant Tumors Tg: +
  Rapid tumor response in Tg mice: +
  Tumor incidence and/or multiplicity: Tg > non-Tg
  forestomach papillomas: high incidence
  incidence and multiplicity of lung adenoma: not significantly higher
  incidence of skin papilloma: significantly high incidence
[1]; mouse, 75 mg/kg
  incidence of lymphoma: higher
[4]
  forestomach and skin papillomas: higher incidence
[5]
  incidences of forestomach tumor and malignant lymphoma among institutions: High and consistent incidences
  incidences of tumor (squamous cell tumor in forestomach, skin, vagina; Harderian gland carcinoma; lung adenomas; malignant lymphoma): increased
[2]
  Genotoxicity (Salmonella): +
[3]
  Malignant Tumors Non-Tg: −
  forestomach papillomas: no papillomas
  skin papillomas and hyperplasias: did not induce

## C=COC(N)=O [Vinyl carbamate]
[1]; [8]
  lung adenocarcinomas incidence: 50%
  lung adenomas incidence: 100%
  mice bearing spleen hemangiosarcomas: Approximately 90%
[1]; [6]
  liver tumors: neither CB6F1-HRAS2 mice nor control non-Tg mice treated with these compounds developed liver tumors
[1]; mouse
  Malignant Tumors Tg: ++
  Rapid tumor response in Tg mice: +
  Tumor incidence and/or multiplicity: Tg > non-Tg
[2]
  Genotoxicity (Salmonella): +
[3]; CB6F1 (non-Tg), ip, 60 mg/kg
  lung adenomas incidence: > 90%
[3]
  Malignant Tumors Non-Tg: +
[3]; ip, 60 mg/kg
  incidence of lung adenocarcinoma: much lower
  spleen hemangiosarcomas: none developed
  tumor multiplication (lung adenomas): lower
